From patent US9120795B2, “Crystalline form of a β-lactamase inhibitor” (Cubist Pharmaceuticals, Inc., priority 2013, dated 2015) come the findings set out here.

In test [1] the test system is Eco isogenic, β-Lactamase none. The test is described as follows: Synergy MIC (sMIC) assay. The format is cell-based, E. coli. Conditions: β-Lactam none. The method, then: (§1) The synergy MIC (sMIC) assay determines the concentration of the BLI required to potentiate the activity of a fixed concentration of a β-lactam antibiotic against β-lactamase producing bacterial strains. The experimental protocol was performed according to Clinical and Laboratory Standards Institute (CLSI) guidelines with modifications as described below (CLSI guidelines can be derived from the CLSI document M07-A9 published in January 2012: “Methods for Dilution Antimicrobial Susceptibility Tests for Bacteria That Grow Aerobically; Approved Standard-Ninth Edition”). […]
(§2) Plates were incubated for 18-20 hours at 37° C. with aeration (200 rpm). Following incubation, growth was confirmed visually placing plates over a viewing apparatus (stand with a mirror underneath) and then OD600 was measured using a SpectraMax 340PC384 plate reader (Molecular Devices, Sunnyvale, Calif.). Growth was defined as turbidity that could be detected with the naked eye or achieving minimum OD600 of 0.1. sMIC values were defined as the lowest concentration producing no visible turbidity. […]

Another test concerns Ecl.569 (AmpC, clinical). Put plainly: Standard BLI potentiation MIC assay. The settings on record: Enterobacter, read-out: MIC of β-lactam with BLI. The format is cell-based, Enterobacter spp. Here is the method: The experimental protocol was performed according to Clinical and Laboratory Standards Institute (CLSI) guidelines with modifications as described below (CLSI guidelines can be derived from the CLSI document M07-A9 published in January 2012: “Methods for Dilution Antimicrobial Susceptibility Tests for Bacteria That Grow Aerobically; Approved Standard-Ninth Edition”).
To prepare for MIC testing, frozen glycerol stocks of clinical isolates (Klebsiella pneumoniae, Eschericia coli, Enterobacter spp, Citrobacter spp, or Pseudomonas aeruginosa) were used to streak for isolated colonies on rich, non-selective, tryptic soy agar containing 5% sheep's blood (TSAB). Frozen glycerol stocks of laboratory engineered, isogenic E. coli strains, which contain cloned β-lactamase expressing plasmids were used to streak for isolated colonies on rich, selective LB agar supplemented with 25 μg/mL tetracycline to maintain the plasmid. All strains were incubated at 37° C. for 18-24 hrs. […]
Plates were incubated for 18-20 hours at 37° C. with aeration (200 rpm). Following incubation, growth was confirmed visually placing plates over a viewing apparatus (stand with a mirror underneath) and then OD600 was measured using a SpectraMax 340PC384 plate reader (Molecular Devices, Sunnyvale, Calif.). Growth was defined as turbidity that could be detected with the naked eye or achieving minimum OD600 of 0.1. […]

Another test concerns Kpn clinical, KPC-2. Put plainly: Synergy MIC (sMIC) assay. The format is cell-based, Klebsiella pneumoniae. Conditions: KPC-2, clinical Kpn; CXA-101 at 4 μg/mL. Here is the method:
as §1, §2

The subject of another test is Pae clinical, KPC-2. The test is described as follows: Synergy MIC (sMIC) assay. The settings on record: KPC-2, clinical Pae; CXA-101 at 4 μg/mL. The format is cell-based, Pseudomonas aeruginosa. Here is the method: as §1, §2

What is called MIC is the lowest concentration found to suppress growth. For the compound `O=C1N2C[C@@H](CC[C@H]2c2nnco2)N1OS(=O)(=O)[O-].[Na+]` [Hydrate 1, sodium (2S,5R)-2-(1,3,4-oxadiazol-2-yl)-7-oxo-1,6-diazabicyclo[3.2.1]octan-6-yl sulfate], the sMIC result is on record as “F (F = ≧128 μg/mL)” in test [1]; “C (C = 4-8 μg/mL)” in the test on Kpn clinical, KPC-2; “C (C = 4-8 μg/mL)” in the test on Pae clinical, KPC-2. Besides, the MIC in the test on Ecl.569 (AmpC, clinical) fell in the range of 0.25 to 0.5 µg/mL.
